Reference: PMC12741935 (Alzheimer's & Dementia, 2025)

What was measured:
[1] = test system: dendritic spines, layer V of somatosensory cortex; assay: Golgi staining, dendritic spine density in somatosensory cortex of 5xFAD mice; format: in vivo
Procedure: Drug concentrations were prepared immediately before dosing each day. […] The right hemisphere was subjected to Golgi staining as described previously[29] to assess dendrite morphology and dendritic spine density. Briefly, frozen mice brains were rapidly immersed in a modified Golgi-Cox staining solution (developed and provided by […] Jing and Francis Lee, Cornell University) for 9 days at room temperature in the dark. The brains were then incubated in 30% sucrose in dH2O at 4°C for 72 hours, with the solution refreshed after the first 12 hours. Next, 150 μm sections were prepared using a vibratome and mounted onto slides coated with 0.3% gelatin. After a brief drying period, slides were dipped three times in 40% sucrose and air dried for 72 hours in the dark. After dH2O washes, sections were developed using a staining solution, rinsed again, dehydrated through a graded ethanol series, cleared in xylene, and cover slipped with DPX mounting medium. Brain sections stained using the Golgi-Cox method were imaged with a Zeiss brightfield microscope equipped with the Neurolucida software (MBF Biosciences). The Neurolucida software was used to acquire neuron pictures, trace neuronal dendrites, and quantify dendritic spine density. […] After a neuron was selected, the 100 × oil immersion objective was used to perform real time dendritic tracing using Neurolucida's live mode. The soma was outlined using the “cell body” option followed by manual tracing of apical and basal dendrites using the respective “dendrite tracing” options. After the tracing was finished, spines were manually marked along the dendrites. A.DAT file was saved for each neuron post completion of dendrite and spine tracing and imported into Neurolucida Explorer, which is used to perform quantitative structural analysis and dendrite length and number of spines data for each neuron is exported. The spine density is calculated by dividing number of spines/dendrite length separately for apical and basal dendrites for each neuron.

[2] = test system: 14 DIV hippocampal neurons; assay: oTau-induced dendrite degeneration (MAP2 dendrite length, number) in cultured hippocampal neurons; format: cell-based, mouse; conditions: oTau 50 nM + inhibitor 24 h vs oTau alone, NVS-PAK1-1 10 nM, AZ 1 nM, G 5 nM
Procedure: For in vitro study, all animal procedures were conducted in accordance with the National Institutes of Health Guide for the Care and Use of Laboratory Animals using protocols approved by the institutional animal care and use committee at Stanford University. Timed pregnant C57BL/6 mice (Strain code: 027) were purchased from Charles River Laboratories and delivered on embryonic day 15 (E15), after which E16 embryos were used for primary hippocampal cultures. Primary embryonic mouse hippocampal neuron cultures were plated on poly‐D‐lysine‐coated (10 µg/mL) glass cover slips at 40,000 to 50,000 cells per well in 12‐well plates (Corning Life Sciences). Cells were seeded in plating medium DMEM/F12 supplemented with 10% fetal bovine serum and 1 × penicillin/streptomycin (PS) for 2 hours. Medium was then changed to B‐27 Plus Neuronal Culture System (Invitrogen) supplemented with PS, and 2 mM glutamine.
Immunofluorescence was performed as described previously.[24] Briefly, cultured hippocampal neurons were fixed in 4% formaldehyde for 20 minutes, permeabilized for 6 minutes in 80% ice‐cold methanol, and incubated with primary antibodies at 4°C overnight. Primary antibodies used were rabbit polyclonal MAP2 antibody for labeling dendrites (1:1000, #8707, Cell Signaling) and mouse monoclonal drebrin antibody for labeling dendritic spines (1:300; Cat#ADI‐NBA‐110, Enzo). Secondary antibodies consisted of donkey antirabbit or antimouse conjugated with either FITC or Cy3 (1:400; Jackson ImmunoResearch Laboratories, Inc.).
The cultured hippocampal neurons were imaged using an oil‐based 63x objective on a Leica Stellaris 5 confocal microscope. The cell nucleus was stained with DAPI and imaged at a wavelength of 405 nm (blue channel), the dendrites stained by MAP2 were imaged at 488 nm wavelength (green channel), and the drebrin‐stained spines were imaged at a wavelength of 561 nm (red channel). Z‐stack images of neurons were acquired at a 1024 × 1024 resolution, a zoom factor of 1.0, and a z‐step size of 0.5 µm. The number of steps for every z‐stack picture of a neuron were determined by the size of the neuron in the z‐plane, to ensure that the entirety of a neuron is captured in the picture. The areas to be imaged were selected systematically, starting from the top‐left region to proceeding to the bottom‐right region of a coverslip. For imaging, preference was given to field of views containing isolated neurons versus clustered neurons.
For quantification of drebrin‐positive spines in vitro, the images were analyzed using Imaris 9.3 software. Each image consisted of one major neuron and the “filaments” option in Imaris was applied to manually trace along the dendrites of every neuron, by placing starting and seed points at the beginning and along the length of the dendrites, respectively. The largest dendrite diameter (i.e., Starting Point) was set at 9.00 µm threshold while the thinnest dendrite diameter (i.e., Seed Point) was set at 1.00 µm threshold. After manually tracing the dendrites, the spines along the dendrites were assessed using the automatic “spine detection” function in Imaris. The thinnest spine diameter was set at 0.80 µm threshold while the maximum spine length was set at 5.00 µm. The spine density (number of spines/dendrite length) was then calculated for each neuron. All image acquisition and quantification were performed in a blind manner. For in vitro quantification of dendrite degeneration, Neurolucida (MBF Biosciences) in the manual mode was used to measure the total dendritic length, numbers of dendrites, and dendritic complexity for each neuron.

[3] = young male 5xFAD, 100 mg/kg BID PO 12 weeks

SMILES: CC(C)NC(=O)N1CC[C@H](NC2=Nc3cc(F)ccc3N(CC(F)F)c3ccc(Cl)cc32)C1 [NVS‐PAK1‐1, (S)‐3‐([2‐chloro‐5‐(2,2‐difluoroethyl)‐8‐fluoro‐5H‐dibenzo[b,e][1,4]diazepin‐11‐yl]amino)‐N‐isopropylpyrrolidine‐1‐carboxamide]
- apical dendritic spine density, somatosensory cortex ([1]; female 5xFAD, 100 mg/kg BID PO 12 weeks from 3 to 6 months of age, P < 0.01): prevented the loss
- basal dendritic spine density, somatosensory cortex ([1]; female 5xFAD, 100 mg/kg BID PO 12 weeks from 3 to 6 months of age, P < 0.05): prevented the loss
- apical spine density, somatosensory cortex [1, 3]: no significant difference
- basal spine density, somatosensory cortex [1, 3]: no significant difference
- dendrite number per neuron [2]: significantly increased dendrite number per neuron
- total dendrite length per neuron ([2]; PAK1-C 10 nM): preserved dendrite length
